The results in this text go back to patent publication US6936619B2, “Quinazolinone compounds useful in therapy” (Pfizer, Inc., priority 2002, dated 2005).

For the test, the target named is T1, α1L Receptor (Oryctolagus cuniculus, UniProt O02824).
T1 construct: A single rabbit aorta was cleaned of connective tissue, cut into rings; from tissue; host or cells: rabbit aorta rings
T1 sequence (O02824 1-466): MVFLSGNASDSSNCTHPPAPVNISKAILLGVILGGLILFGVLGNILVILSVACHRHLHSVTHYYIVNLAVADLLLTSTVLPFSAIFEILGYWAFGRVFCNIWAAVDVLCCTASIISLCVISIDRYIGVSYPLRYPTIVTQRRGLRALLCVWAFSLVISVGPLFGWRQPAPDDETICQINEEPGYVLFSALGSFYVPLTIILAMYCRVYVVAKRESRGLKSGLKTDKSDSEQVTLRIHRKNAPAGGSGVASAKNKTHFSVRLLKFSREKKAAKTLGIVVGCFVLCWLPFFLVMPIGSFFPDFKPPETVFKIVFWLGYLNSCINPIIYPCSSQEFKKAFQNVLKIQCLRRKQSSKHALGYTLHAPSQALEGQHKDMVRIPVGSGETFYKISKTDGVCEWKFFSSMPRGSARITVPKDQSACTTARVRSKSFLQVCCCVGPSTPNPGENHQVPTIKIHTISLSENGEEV
The test is described as follows: Contractile responses of rabbit aorta (methoxamine-induced), antagonist pA2. Conditions: rabbit aorta rings, methoxamine as agonist, 60 minutes with compound, Schild analysis; read-out: pA2 v α1L (converted). Here is the method:
Contractile Responses of Rabbit Aorta (α1L Receptor)
A single rabbit aorta was cleaned of connective tissue, cut into rings ˜3 mm in length, then denuded of […] by rubbing very gently with a probe. The lengths of tissue are then mounted in the 5 mL organ baths, which contain the modified Krebs of the following composition (mM): NaCl (119), KCl (4.7), CaCl2 (2.5), KH2PO4 (1.2), MgSO4 (1.2), NaHCO3 (25), glucose (11), and gassed with 95% O2/5% CO2. The tissues are placed under ˜1.5 g tension, and are left to equilibrate for ˜60 minutes on a pump speed of ˜5 mL\minute, adjusting the tension to 1-1.5 g if necessary after 15 and 45 minutes. A 1M stock solution (1×10^−3M bath conc.) of methoxamine in water was made and 1:10 dilutions made using the same diluent. A sensitising dose of 120 mM KCl (bath concentration) was added to each bath. After the maximum response had been reached (usually about 6-8 minutes), the tissues are washed with Krebs solution for 60 minutes, pump speed at ˜2.97 mL/min. […]
The data was captured on ADA analysis in-vitro software, which expresses the readings as a % of the maximum response of the control curve, draws control and test compound dose response curves, and calculates a EC50 and then dose ratio (DR), the ratio between control and treatment curve EC50, for each treatment. […]

Regarding `COc1cc(C2CC2)c2c(=O)[nH]c(N3CCc4nc(CN5CCOCC5)ccc4C3)nc2c1` [Example 11, 5-Cyclopropyl-7-methoxy-2-(2-morpholin-4-ylmethyl-7,8-dihydro[1,6]-naphthyridin-6(5H)-yl)-4(3H)-quinazolinone], the Kb was 0.1 nM.
